Assay results published in ChEMBL document CHEMBL5154870, “Discovery of novel glutaminase 1 allosteric inhibitor with 4-piperidinamine linker and aromatic heterocycles” (Eur J Med Chem, 2022).

How the values were obtained:
[1] = target: T1, Glutaminase kidney isoform, mitochondrial (Mus musculus, UniProt D3Z7P3); assay: Inhibition of GLS1 in mouse kidney assessed as inhibition of glutamate production using glutamine as substrate incubated for 1 hr by coupled assay; assay type: tissue-based
T1 sequence (D3Z7P3 whole entry): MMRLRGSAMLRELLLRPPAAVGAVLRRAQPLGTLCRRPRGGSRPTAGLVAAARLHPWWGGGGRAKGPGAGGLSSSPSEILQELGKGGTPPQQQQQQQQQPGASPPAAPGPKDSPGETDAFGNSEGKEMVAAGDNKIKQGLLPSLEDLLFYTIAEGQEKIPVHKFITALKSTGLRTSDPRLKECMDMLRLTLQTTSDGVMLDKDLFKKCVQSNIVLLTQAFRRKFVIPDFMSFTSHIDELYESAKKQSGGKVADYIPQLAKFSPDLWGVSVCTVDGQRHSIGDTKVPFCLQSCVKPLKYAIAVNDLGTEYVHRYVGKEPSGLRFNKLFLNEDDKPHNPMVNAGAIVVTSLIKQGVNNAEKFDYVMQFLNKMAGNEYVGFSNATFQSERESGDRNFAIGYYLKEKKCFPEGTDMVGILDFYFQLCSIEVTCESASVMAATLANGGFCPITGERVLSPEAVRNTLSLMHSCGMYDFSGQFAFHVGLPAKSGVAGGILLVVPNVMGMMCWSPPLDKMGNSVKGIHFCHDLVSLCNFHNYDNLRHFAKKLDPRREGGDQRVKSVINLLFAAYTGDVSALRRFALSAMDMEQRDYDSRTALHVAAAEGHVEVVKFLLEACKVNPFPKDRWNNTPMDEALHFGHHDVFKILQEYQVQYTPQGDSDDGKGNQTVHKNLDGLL

H22 = assay: Antiproliferative activity against mouse H22 cells assessed as inhibition of cell proliferation measured after 72 hrs by MTT assay; assay type: functional, cell-based; settings: H22, 72 h
[2] = Metabolic stability in human liver microsomes assessed as parent compound remaining at 10 uM measured after 60 mins by LC-MS/MS analysis; assay type: ADME, Microsome; settings: microsomes, 1 h, 10 µM
HCT-116 [3] = assay: Antitumor activity against human HCT-116 cells xenografted in BALB/c SPF mouse assessed as tumor growth inhibition at 100 mg/kg, ip administered BID for 21 days; assay type: functional; settings: time 21 day
MDA-MB-436 = assay: Antiproliferative activity against human MDA-MB-436 cells overexpressing GLS1 assessed as inhibition of cell proliferation measured after 72 hrs by MTT assay; assay type: functional, cell-based; settings: MDA-MB-436, 72 h
[4] = Metabolic stability in human plasma assessed as parent compound remaining at 1 uM measured after 2 hrs by LC-MS/MS analysis; assay type: ADME, cell-free; settings: read-out: Stability
[5] = Metabolic stability in human liver microsomes assessed as half life at 10 uM by LC-MS/MS analysis; assay type: ADME, Microsome
[6] = Metabolic stability in human liver microsomes assessed as intrinsic clearance at 10 uM by LC-MS/MS analysis; assay type: ADME, Microsome; settings: read-out: CLH
[7] = Metabolic stability in human liver microsomes assessed as parent compound remaining at 10 uM measured after 30 mins by LC-MS/MS analysis; assay type: ADME, Microsome; settings: microsomes, 0.5 h, 10 µM
[8] = target: T1, Glutaminase kidney isoform, mitochondrial; assay: Inhibition of GLS1 in mouse brain assessed as inhibition of glutamate production using glutamine as substrate incubated for 1 hr by coupled assay; assay type: tissue-based
CT26 = assay: Antiproliferative activity against mouse CT26 cells overexpressing GLS1 assessed as inhibition of cell proliferation measured after 72 hrs by MTT assay; assay type: functional, cell-based; settings: CT26, 72 h
HCT-116 [9] = assay: Antiproliferative activity against human HCT-116 cells overexpressing GLS1 assessed as inhibition of cell proliferation measured after 72 hrs by MTT assay; assay type: functional, cell-based; settings: HCT-116, 72 h
[10] = target: T2, Glutaminase kidney isoform, mitochondrial (Homo sapiens, UniProt O94925); assay: Binding affinity to human GLS1 assessed as dissociation constant by surface plasmon resonance analysis
T2 sequence (O94925 whole entry): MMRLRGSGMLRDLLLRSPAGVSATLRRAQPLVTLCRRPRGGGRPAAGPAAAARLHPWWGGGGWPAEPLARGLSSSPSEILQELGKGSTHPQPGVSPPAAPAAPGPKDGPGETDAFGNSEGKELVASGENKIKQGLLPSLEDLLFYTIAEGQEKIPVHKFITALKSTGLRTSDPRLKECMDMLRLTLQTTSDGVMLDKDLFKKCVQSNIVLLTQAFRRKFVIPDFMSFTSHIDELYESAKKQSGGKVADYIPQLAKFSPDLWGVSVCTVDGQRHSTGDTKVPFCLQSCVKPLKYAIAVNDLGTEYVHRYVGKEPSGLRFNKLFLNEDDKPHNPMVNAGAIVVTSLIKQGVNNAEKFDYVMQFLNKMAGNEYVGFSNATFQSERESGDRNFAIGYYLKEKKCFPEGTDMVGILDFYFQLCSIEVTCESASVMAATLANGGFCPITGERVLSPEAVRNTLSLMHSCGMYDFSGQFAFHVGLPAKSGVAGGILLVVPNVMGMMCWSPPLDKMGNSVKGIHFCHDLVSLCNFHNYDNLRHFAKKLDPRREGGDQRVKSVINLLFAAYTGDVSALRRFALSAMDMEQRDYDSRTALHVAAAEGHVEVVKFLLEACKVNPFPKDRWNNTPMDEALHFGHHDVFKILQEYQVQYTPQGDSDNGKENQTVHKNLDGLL

[11] = target: T3, Glutaminase kidney isoform, mitochondrial (Homo sapiens) (UniProt O94925); settings: filed as negative allosteric modulator
T3 sequence (whole entry): T2 sequence (O94925 whole entry)
Description: Binding affinity to human GLS1 assessed as stabilization of protein by measuring change in melting temperature by protein thermal shift assay

[12] = target: T2, Glutaminase kidney isoform, mitochondrial; assay: Allosteric inhibition of human GLS1 using glutamine as substrate incubated for 60 mins by NADH/NADPH-based absorbance analysis

SMILES	IC50 [1]	IC50 (H22)	Stability [2]	TGI (HCT-116 [3])	IC50 (MDA-MB-436)	remaining at 2 h, 1 µM [4]	t1/2 ([5]; microsomes, 10 µM)	microsomal CLint at 10 µM [6]	Stability [7]	IC50 [8]	IC50 (CT26)	IC50 (HCT-116 [9])	Kd [10]	half-life at 10 µM ([5]; liver microsomes)	ΔTm [11]	IC50 [12]
O=C(Cc1cccc(OC(F)(F)F)c1)Nc1ccc(CCCCc2nnc(NC(=O)Cc3ccccn3)s2)nn1	0.02 µM	1.34 µM	89%	50.6%	0.41 µM	85%	1.524 h	19.5 µL/min/mg	98%	0.02 µM	0.42 µM					
CO[C@H](C(=O)Nc1nnc(NC2CCN(c3nnc(NC(=O)CCc4cn(-c5ccc(C(F)(F)F)cc5)nn4)s3)CC2)s1)c1ccccc1					0.62 µM	98%		5.57 µL/min/mg				0.16 µM	0.081 µM	5.21 h	15.2 °C	0.0193 µM
